Measured values published in patent publication US11254680B2, “Cyclic iminopyrimidine derivatives as kinase inhibitors” (ABM Therapeutics Corporation, priority 2017, dated 2022).

Experiments:
[1] = Caco-2 Permeability Assay; assay type: in vitro ADME; settings: human; for efflux ratio at 120 min: Caco-2; for Papp A→B at 120 min: Caco-2, apical to basolateral; for Papp A→B at 120 min / Papp B→A at 120 min: 1-30 μM; for Papp B→A at 120 min: Caco-2, basolateral to apical
Procedure: Caco-2 cells are widely used as an in vitro assay to measure the permeability of a drug compound. The Caco-2 cell line is derived from a human colorectal carcinoma, and when cultured, the cells spontaneously differentiate into monolayers of polarized enterocytes. Caco-2 cells express P-glycoprotein and breast cancer resistance protein, two of the most relevant cell membrane active transporters that affect drug compound's permeability into cells and blood brain barrier.
The cells are seeded on Millipore Millicell plates and form a confluent monolayer over 20 days prior to the experiment. On day 20, the test compound (1-30 μM concentration) is added to the apical side of the membrane and the transport of the compound across the monolayer is monitored over a 120 minutes time period. To study drug efflux, it is also necessary to investigate transport of the compound from the basolateral compartment to the apical compartment.
The permeability coefficient (Papp) is calculated from the following equation: Papp=[(dQ/dt)/C0×A] where dQ/dt is the rate of permeation of the drug across the cells, C0 is the donor compartment concentration at time zero and A is the area of the cell monolayer. C0 is obtained from analysis of the dosing solution at the start experiment.

A375 melanoma cells = test: Antiproliferation assay in A375 cell line by CellTiter Glo; assay type: cell-based; settings: Homo sapiens, A-375, 72 hours or 144 hours
Procedure: In vitro anti-proliferation study of test compounds in A375 cell line by CellTiter Glo. The cells were routinely maintained as a monolayer culture in corresponding culture medium, at 37° C. with 5% CO2 in air.
Harvest the exponential growth cells by trypsin-EDTA digestion. Re-suspend the cell pellet in fresh culture medium, and adjust the concentration to needed (the cell density per well was listed in following form). The cell viability is over 98% by Trypan blue staining. Inoculate cells into 96 wells plates according to the plate map (90 μL/well). Incubate the plates at 37° C. and 5% CO2 overnight. The next day, prepare the 10×compound containing medium according to the plate map. Transfer 10 μL of 10×compound containing medium into each well of the assay plates (the final DMSO concentration is 0.5%). Gently mix the medium and incubate at 37° C. and 5% CO2 for another 72 hours or 144 hours.
Prepare the reagent according to the manufacture's instruction. Add 50 μL CellTiter-Glo Reagent in each well. Mix contents for 2 minutes on an orbital shaker to induce cell lysis. Allow the plate to incubate at room temperature for 10 minutes to stabilize luminescent signal. Transfer 100 μL of reaction contents of each well from the clear plates into white walled/white opaque 96-well plates. Record the luminescence on Envision.
Using the luminescence measurements [time zero (T0), control growth (C), and test growth in the presence of drug at the six concentration levels (Ti)], the percentage growth is calculated at each of the drug concentrations levels.
Percentage growth inhibition (GI) is calculated as: GI (%)═[(Ti-T0)/(C-T0)]×100 for concentrations for which Ti>=T0, and GI (%)═[(Ti-T0)/T0]×100 for concentrations for which Ti<T0. Data were analyzed using the XLFit (Excel) tool, fitting to a 4-parameter equation to generate concentration response curves. Concentration of compound that inhibits 50% of control cell growth (GI50) was back-interpolated when y=50% of net growth of DMSO treated control wells using nonlinear regression with the equation: f(x) 205 [fit=(A+((B−A)/(1+((C/x)^))))], where A is the minimum response (Ymin), B is the maximum response (Ymax), C is the inflection point of the curve (Re GI50) and D is the Hill coefficient. Growth inhibition of 50% (GI50) was calculated at the 50% Growth inhibition on the curve. Index values were the sum of Inhibition rate (IR) at each tested compound concentration.

HT-29 colon cancer cells = test: Antiproliferation assay in HT-29 cells by CellTiter Glo; assay type: cell-based; settings: Homo sapiens, 72 hours or 144 hours
P-glycoprotein (MDR1) = test: MDCK-MDR1 Permeability Assay; assay type: in vitro ADME, canine; settings: dog; for efflux ratio at 120 min: MDCK-MDR1, Papp(B-A)/Papp(A-B); for Papp A→B at 120 min: MDCK-MDR1, apical to basolateral; for Papp A→B at 120 min / Papp B→A at 120 min: 1-30 μM; for Papp B→A at 120 min: MDCK-MDR1, basolateral to apical
Procedure: MDCK-MDR1 cells originate from transfection of Madin Darby canine kidney (MDCK) cells with the MDR1 gene, the gene encoding for the efflux protein, P-glycoprotein. This cell line is ideal for identifying substrates of P-gp, with or without an inhibitor. The cells are seeded on a Multiscreen™ plate to form a confluent monolayer over 4 days prior to the experiment. On day 4, the test compound (1-30 μM concentration) is added to the apical side of the membrane and the transport of the compound across the monolayer is monitored over a 120 minutes time period. To study drug efflux, it is also necessary to investigate transport of the compound from the basolateral compartment to the apical compartment and calculate an efflux ratio.
The permeability coefficient (Papp) is calculated from the following equation: Papp=[(dQ/dt)/C0×A] where dQ/dt is the rate of permeation of the drug across the cells, C0 is the donor compartment concentration at time zero and A is the area of the cell monolayer.
An efflux ratio is calculated from the mean apical to basolateral (A-B) Papp data and basolateral to apical (B-A) Papp data. Efflux Ratio=Papp(B−A)/Papp(A−B)

[2] = Mouse Pharmacokinetics Study; assay type: in vivo; settings: CD-1 mice; for Vd / half-life / clearance / AUC / Cmax / Tmax: mouse, plasma; for Vd / half-life / clearance: IV 2.5 mg/kg; for half-life: 20% Hydroxypropyl-beta-cyclodextrin; for clearance: read-out: Clp
Text: The pharmacokinetic properties of selected compounds were studied CD-1 mice via intravenous and oral administration by using a standard protocol. The test articles were formulated in 20% Hydroxypropyl-beta-cyclodextrin, either as a clear solution or fine suspension.

| efflux ratio at 120 min [1] | Papp A→B at 120 min [1] [nm/s] | Papp B→A at 120 min [1] [nm/s] | GI50 (A375 melanoma cells) [µM] | GI50 (HT-29 colon cancer cells) [µM] | efflux ratio at 120 min (P-glycoprotein (MDR1)) | Papp A→B at 120 min (P-glycoprotein (MDR1)) [nm/s] | Papp B→A at 120 min (P-glycoprotein (MDR1)) [nm/s] | F ([2]; PO 30 mg/kg) [%] | Vd [2] [L/kg] | half-life [2] [min] | clearance [2] [L/h/kg] | AUC ([2]; PO 30 mg/kg) [µg·h/mL] | Cmax ([2]; PO 30 mg/kg) [µg/mL] | Tmax ([2]; PO 30 mg/kg) [min] | F ([2]; PO 25 mg/kg) [%] | AUC ([2]; PO 25 mg/kg) [µg·h/mL] | Cmax ([2]; PO 25 mg/kg) [µg/mL] | Tmax ([2]; PO 25 mg/kg) [min] | Compound |
| --- | --- | --- | --- | --- | --- | --- | --- | --- | --- | --- | --- | --- | --- | --- | --- | --- | --- | --- | --- |
| 2.92 | 64.2 | 187 | < 0.1 | < 0.1 | 6.53 | 36.5 | 238 | 112 ± 14 | 0.348 ± 0.037 | 88.2 ± 11.4 | 0.166 ± 0.0312 | 207 ± 25.9 | 37.3 ± 6.24 | 60 | – | – | – | – | CCCS(=O)(=O)Nc1cccc(Oc2ccc3c(c2)C2=NCCN2C=N3)c1C#N [Compound 1, N-(2-Cyano-3-((2,3-dihydroimidazo[1,2-c]quinazolin-9-yl)oxy)phenyl)propane-1-sulfonamide] |
| 0.31 | 435 | 135 | < 0.1 | 0.1 to 1 | 1.42 | 263 | 372 | – | 1.22 ± 0.16 | 28 ± 0.72 | 1.82 ± 0.278 | – | – | – | 58.9 ± 21.5 | 8.22 ± 3 | 4.22 ± 1.35 | 15 | CCCS(=O)(=O)Nc1cccc(Oc2ccc3c(c2)C2=NCCN2C=N3)c1Cl [Compound 6, N-(2-Chloro-3-((2,3-dihydroimidazo[1,2-c]quinazolin-9-yl)oxy)phenyl)propane-1-sulfonamide] |
| – | – | – | < 0.1 | < 0.1 | 8.79 | 10.1 | 88.9 | – | – | – | – | – | – | – | – | – | – | – | CCCS(=O)(=O)Nc1cccc(Oc2ccc3c(c2)C2=NCCCN2C=N3)c1C#N [Compound 16, N-(2-cyano-3-((3,4-dihydro-2H-pyrimido[1,2-c]quinazolin-10-yl)oxy)phenyl)propane-1-sulfonamide] |
| 0.36 | 529 | 192 | < 0.1 | < 0.1 | 1.68 | 241 | 405 | – | 0.948 ± 0.166 | 72.6 ± 6 | 0.542 ± 0.0786 | – | – | – | 113 ± 11.1 | 53.8 ± 5.21 | 11.7 ± 2.38 | 30 | CCCS(=O)(=O)Nc1cccc(Oc2ccc3c(c2)C2=NCCCN2C=N3)c1Cl [Compound 21, N-(2-Chloro-3-((3,4-dihydro-2H-pyrimido[1,2-c]quinazolin-10-yl)oxy)phenyl)propane-1-sulfonamide] |

Second part, the compound before the results:

| Compound | efflux ratio at 120 min [1] | Papp A→B at 120 min [1] [nm/s] | Papp B→A at 120 min [1] [nm/s] | GI50 (A375 melanoma cells) [µM] | GI50 (HT-29 colon cancer cells) [µM] | efflux ratio at 120 min (P-glycoprotein (MDR1)) | Papp A→B at 120 min (P-glycoprotein (MDR1)) [nm/s] | Papp B→A at 120 min (P-glycoprotein (MDR1)) [nm/s] | F ([2]; PO 30 mg/kg) [%] | Vd [2] [L/kg] | half-life [2] [min] | clearance [2] [L/h/kg] | AUC ([2]; PO 30 mg/kg) [µg·h/mL] | Cmax ([2]; PO 30 mg/kg) [µg/mL] | Tmax ([2]; PO 30 mg/kg) [min] | F ([2]; PO 25 mg/kg) [%] | AUC ([2]; PO 25 mg/kg) [µg·h/mL] | Cmax ([2]; PO 25 mg/kg) [µg/mL] | Tmax ([2]; PO 25 mg/kg) [min] |
| --- | --- | --- | --- | --- | --- | --- | --- | --- | --- | --- | --- | --- | --- | --- | --- | --- | --- | --- | --- |
| CCCS(=O)(=O)Nc1cccc(Oc2ccc3c(c2)C2=NCCCN2C=N3)c1F [Compound 18, N-(3-((3,4-Dihydro-2H-pyrimido[1,2-c]quinazolin-10-yl)oxy)-2-fluorophenyl)propane-1-sulfonamide] | 2.2 | 113 | 248 | < 0.1 | 0.1 to 1 | – | – | – | – | – | – | – | – | – | – | – | – | – | – |
| CCCS(=O)(=O)Nc1nccc(Oc2ccc3c(c2)C2=NCCCN2C=N3)c1[N+](=O)[O-] [Compound 23, N-(4-((3,4-Dihydro-2H-pyrimido[1,2-c]quinazolin-10-yl)oxy)-3-nitropyridin-2-yl)propane-1-sulfonamide] | – | – | – | > 1 | > 1 | – | – | – | – | – | – | – | – | – | – | – | – | – | – |
| CCCS(=O)(=O)Nc1nccc(Oc2ccc3c(c2)C2=NCCCN2C=N3)c1Cl [Compound 26, N-(3-Chloro-4-((3,4-dihydro-2H-pyrimido[1,2-c]quinazolin-10-yl)oxy)pyridin-2-yl)propane-1-sulfonamide] | – | – | – | < 0.1 | < 0.1 | 4.98 | 39.5 | 196 | – | – | – | – | – | – | – | – | – | – | – |
